In US8242275B2, “Bicyclic pyrazole compounds as antibacterial agents” (Janssen Pharmaceutica NV, priority 2005, dated 2012):
≈ marks a conversion by molar mass, not a printed value. Like-named read-outs stand apart in the source and are kept apart here.

Legend:
CipR MRSA OC5273 = test: Resistant strains assay (broth microdilution MIC); format: cell-based; details: Staphylococcus aureus, read-out: MIC, Column H
From the text: (§1) Testing protocols followed NCCLS methodology for broth microdilution assays.

CipR MRSA OC4222 = test: Resistant strains assay (broth microdilution MIC); format: cell-based; details: Staphylococcus aureus, read-out: MIC, Column G
From the text: as §1

MRSA OC2878 = test: Resistant strains assay (broth microdilution MIC); format: cell-based; details: Staphylococcus aureus, read-out: MIC, Column D
From the text: as §1

MRSA OC3726 (COL) = test: Resistant strains assay (broth microdilution MIC); format: cell-based; details: Staphylococcus aureus, read-out: MIC, Column C
From the text: as §1

CipR MRSA OC4159 = test: Resistant strains assay (broth microdilution MIC); format: cell-based; details: Staphylococcus aureus, read-out: MIC, Column F
From the text: as §1

MSSA ATCC13709 (Smith) = test: Resistant strains assay (broth microdilution MIC); format: cell-based; details: Staphylococcus aureus
Experimental: (§2) Compounds of the present invention were tested for activity against susceptible and resistant bacterial strains in vitro, and activity was compared to known anti-bacterial agents. Testing protocols followed NCCLS methodology for broth microdilution assays. MIC values in μg/mL are presented in Table 3 for the following strains: Column A: MSSA ATCC13709 (Smith); Column B: MSSA ATCC 29213; Column C: MRSA OC3726 (COL); Column D: MRSA OC2878.

MSSA ATCC 29213 = test: Resistant strains assay (broth microdilution MIC); format: cell-based; details: Staphylococcus aureus, read-out: MIC, Column B
Experimental: as §2

CipR MRSA OC3946 = test: Resistant strains assay (broth microdilution MIC); format: cell-based; details: Staphylococcus aureus, read-out: MIC, Column E
Experimental: as §2
MIC values in μg/mL are presented in Table 4 for the following strains: Column E: CipR MRSA OC3946; Column F: CipR MRSA OC4159; Column G: CipR MRSA OC4222; Column H: CipR MRSA OC5273.

S. pneumoniae ATCC49619 = test: In vitro antibacterial activity (MIC assay), broth microdilution; format: cell-based; details: Streptococcus pneumoniae, ATCC49619; read-out: S. pneumoniae ATCC49619 MIC
Procedure, shortened: (§3)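 Broth microdilution per NCCLS M7-A5: 11-point 2-fold compound dilutions from DMSO stocks, inoculum about 5×10^5 CFU/mL, incubation 35° C for 16–24 h. MIC scored visually against no-compound growth controls, in μg/mL.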

S. aureus ATCC13709 = test: as above; format: cell-based; details: Staphylococcus aureus, ATCC13709; read-out: S. aureus ATCC13709 MIC
Procedure, shortened: as §3

[1] = system: E. coli KL-16 (GSC strain 4245); test: as above; format: cell-based; details: Escherichia coli
Procedure, shortened: as §3

E. coli DNA gyrase = target: T1, E. coli DNA gyrase (Escherichia coli, UniProt P0AES4+P0AES6); test: DNA gyrase inhibition assay (supercoiling); format: biochemical; details: E. coli DNA gyrase supercoiling, visual inspection of gels; read-out: DNA Gyrase IC50 (converted)
T1 construct: purchased John Innes Enterprises Ltd. (John Innes Centre, UK)
T1 sequence (P0AES4 whole entry, one chain of several): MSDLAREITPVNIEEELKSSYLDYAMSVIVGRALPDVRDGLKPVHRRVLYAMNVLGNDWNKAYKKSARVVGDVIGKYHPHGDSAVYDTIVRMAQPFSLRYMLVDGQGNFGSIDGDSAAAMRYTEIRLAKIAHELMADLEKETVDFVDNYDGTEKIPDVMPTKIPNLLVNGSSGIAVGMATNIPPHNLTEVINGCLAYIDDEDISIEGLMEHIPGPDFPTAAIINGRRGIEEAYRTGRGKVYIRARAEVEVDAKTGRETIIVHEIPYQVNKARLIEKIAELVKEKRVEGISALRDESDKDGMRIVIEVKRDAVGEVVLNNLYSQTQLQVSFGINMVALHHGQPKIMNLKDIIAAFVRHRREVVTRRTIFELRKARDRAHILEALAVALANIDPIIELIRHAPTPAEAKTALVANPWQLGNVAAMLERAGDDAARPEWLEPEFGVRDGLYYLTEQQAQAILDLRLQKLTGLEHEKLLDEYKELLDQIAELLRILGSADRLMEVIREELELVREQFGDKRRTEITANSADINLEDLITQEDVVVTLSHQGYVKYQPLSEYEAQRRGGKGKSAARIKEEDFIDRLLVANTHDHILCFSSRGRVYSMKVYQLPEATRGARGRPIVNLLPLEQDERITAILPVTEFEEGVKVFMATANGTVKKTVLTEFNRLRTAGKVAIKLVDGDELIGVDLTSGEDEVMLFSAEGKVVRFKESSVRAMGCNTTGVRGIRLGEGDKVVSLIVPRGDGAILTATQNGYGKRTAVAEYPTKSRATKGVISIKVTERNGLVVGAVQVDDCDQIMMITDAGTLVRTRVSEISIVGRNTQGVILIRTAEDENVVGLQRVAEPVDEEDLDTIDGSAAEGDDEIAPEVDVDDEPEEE
Procedure, shortened: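 Relaxed pBR322 (250 ng) was supercoiled by 0.2 unit gyrase in Tris-HCl pH 7.5, KCl, MgCl2, DTT, spermidine, 1 mM ATP, glycerol, albumin, 0.5% DMSO final, 30 min at 37° C. Products were resolved on 1.0% agarose gels with ethidium bromide staining.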

E. coli topoisomerase IV = target: T2, E. coli topoisomerase IV (Escherichia coli, UniProt P0AFI2+P20083); test: Topoisomerase IV inhibition assay (relaxation); format: biochemical; details: E. coli topoisomerase IV relaxation, visual inspection of gels; read-out: Topoisomerase IV IC50 (converted)
T2 construct: purchased John Innes Enterprises Ltd. (John Innes Centre, UK)
T2 sequence (P0AFI2 whole entry): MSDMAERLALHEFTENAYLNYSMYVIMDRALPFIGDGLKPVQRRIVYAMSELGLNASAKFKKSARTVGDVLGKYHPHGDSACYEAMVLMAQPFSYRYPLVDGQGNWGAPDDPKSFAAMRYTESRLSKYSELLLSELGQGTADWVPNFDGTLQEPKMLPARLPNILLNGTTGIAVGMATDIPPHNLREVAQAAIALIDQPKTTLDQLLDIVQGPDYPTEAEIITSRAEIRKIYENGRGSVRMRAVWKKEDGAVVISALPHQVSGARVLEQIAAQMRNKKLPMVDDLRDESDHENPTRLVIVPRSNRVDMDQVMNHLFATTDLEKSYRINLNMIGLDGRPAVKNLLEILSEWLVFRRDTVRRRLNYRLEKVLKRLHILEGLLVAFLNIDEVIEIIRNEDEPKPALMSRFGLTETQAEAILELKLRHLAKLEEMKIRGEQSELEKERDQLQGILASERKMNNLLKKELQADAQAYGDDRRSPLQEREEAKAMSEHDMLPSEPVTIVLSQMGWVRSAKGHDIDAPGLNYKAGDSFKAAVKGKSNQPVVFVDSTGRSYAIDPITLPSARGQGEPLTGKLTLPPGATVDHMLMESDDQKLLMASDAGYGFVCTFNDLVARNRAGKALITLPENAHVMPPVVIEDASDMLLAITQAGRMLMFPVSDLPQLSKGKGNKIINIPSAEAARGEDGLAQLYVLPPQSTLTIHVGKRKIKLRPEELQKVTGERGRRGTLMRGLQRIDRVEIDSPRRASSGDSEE
T2 sequence (P20083 whole entry): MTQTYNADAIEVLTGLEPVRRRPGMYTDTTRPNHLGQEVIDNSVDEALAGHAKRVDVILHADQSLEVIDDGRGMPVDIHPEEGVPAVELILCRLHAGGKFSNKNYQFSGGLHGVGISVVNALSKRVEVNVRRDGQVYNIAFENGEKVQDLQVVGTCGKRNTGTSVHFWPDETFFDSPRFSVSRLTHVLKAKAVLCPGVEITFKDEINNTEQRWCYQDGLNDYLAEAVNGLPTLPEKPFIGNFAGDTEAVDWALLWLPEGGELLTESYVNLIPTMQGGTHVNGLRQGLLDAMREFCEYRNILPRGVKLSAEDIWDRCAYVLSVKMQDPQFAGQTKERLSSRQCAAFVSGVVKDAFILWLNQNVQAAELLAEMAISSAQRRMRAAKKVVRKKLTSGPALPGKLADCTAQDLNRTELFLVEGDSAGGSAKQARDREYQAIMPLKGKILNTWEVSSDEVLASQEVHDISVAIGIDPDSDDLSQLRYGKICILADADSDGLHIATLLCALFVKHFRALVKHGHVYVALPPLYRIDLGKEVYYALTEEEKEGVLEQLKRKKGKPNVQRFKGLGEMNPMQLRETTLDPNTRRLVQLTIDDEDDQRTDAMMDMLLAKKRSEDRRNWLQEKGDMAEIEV
Experimental: Inhibition of the relaxation activity of E. coli topoisomerase IV was determined using enzyme, buffers and substrates received from John Innes Enterprises Ltd. (John Innes Centre, UK). The reactions were performed according to the manufacturer's directions, with the following modifications.
DNA relaxation reactions were carried out in a total reaction volume of 20 μL, containing 300 ng of supercoiled pBR322, 40 mM HEPES-KOH (pH 7.6), 100 mM potassium glutamate, 10 mM Mg(OAc)2, 10 mM DTT, 4 μg/mL tRNA, 2 mM ATP, and 50 μg/mL BSA. Compounds, diluted in 10% DMSO, were added to the reaction mixture to reach a final concentration of 0.5% DMSO. Enzyme was diluted to 0.45 unit/μL in a solution of 40 mM HEPES-KOH (pH 7.6), 150 mM potassium glutamate, 1 mM DTT, 1 mM EDTA, and 40% glycerol. Diluted enzyme (0.9 unit) was added to each reaction.
The reactions were incubated at 37° C. for 45 min. The reactions were then cooled to 0° C. followed by addition of 3 μL of 40% glycerol, 100 mM Tris-HCl (pH 7.5), 50 mM EDTA, 0.5% SDS and 0.1% bromophenol blue. Samples were separated on 1.0% agarose gels. Gels were stained with Ethidium bromide and photographed with a Stratagene Eagle Eye II.

| SMILES | MIC (CipR MRSA OC5273) [µg/mL] | MIC (CipR MRSA OC4222; CipR MRSA OC4222) [µg/mL] | MIC (MRSA OC2878; MRSA OC2878) [µg/mL] | MIC (MRSA OC3726 (COL); MRSA OC3726 (COL)) [µg/mL] | MIC (CipR MRSA OC4159) [µg/mL] | MIC (MSSA ATCC13709 (Smith)) [µg/mL] | MIC (MSSA ATCC 29213) [µg/mL] | MIC (CipR MRSA OC3946; CipR MRSA OC3946) [µg/mL] | MIC (S. pneumoniae ATCC49619) [µg/mL] | MIC (S. aureus ATCC13709) [µg/mL] | MIC [1] [µg/mL] | IC50 (E. coli DNA gyrase) [nM] | IC50 (E. coli topoisomerase IV) [nM] | MIC (CipR MRSA OC4222; MRSA) [µg/mL] | MIC (CipR MRSA OC3946; MRSA) [µg/mL] | MIC (MRSA OC2878; MRSA) [µg/mL] | MIC (MRSA OC3726 (COL); MRSA) [µg/mL] |
| --- | --- | --- | --- | --- | --- | --- | --- | --- | --- | --- | --- | --- | --- | --- | --- | --- | --- |
| CCn1cc(C(=O)O)c(=O)c2cc(F)c(N3CCNCC3)cc21 [Norfloxacin, reference compound] | > 128 | > 128 | 1 (≈ 3.13 µM) | 2 (≈ 6.26 µM) | > 128 | 1 (≈ 3.13 µM) | 2 (≈ 6.26 µM) | 128 (≈ 401 µM) | – | – | – | – | – | – | – | – | – |
| COc1ccc2nccc(-n3cc4c(n3)CCC(NC(=O)c3ccc5c(c3)NC(=O)CS5)C4)c2n1 (stereo not shown) [Example 4, 3-Oxo-3,4-dihydro-2H-benzo[1,4]thiazine-6-carboxylic acid [2-(6-methoxy-[1,5]naphthyridin-4-yl)-4,5,6,7-tetrahydro-2H-indazol-5-yl]-amide] | 0.062 (≈ 0.127 µM) | 0.5 (≈ 1.03 µM) | 0.031 (≈ 0.0637 µM) | 0.062 (≈ 0.127 µM) | 0.5 (≈ 1.03 µM) | 0.06 (≈ 0.123 µM) | 1 (≈ 2.06 µM) | 0.007 (≈ 0.0144 µM) | 4 (≈ 8.22 µM) | 0.06 (≈ 0.123 µM) | > 128 | 514 | 514 | – | – | – | – |
| COc1ccc2nccc(-n3cc4c(n3)CCC(NC(=O)c3cc5c(cc3F)SCC(=O)N5)C4)c2n1 (stereo not shown) [Example 5, 7-Fluoro-3-oxo-3,4-dihydro-2H-benzo[1,4]thiazine-6-carboxylic acid [2-(6-methoxy-[1,5]naphthyridin-4-yl)-4,5,6,7-tetrahydro-2H-indazol-5-yl]-amide] | 0.031 (≈ 0.0614 µM) | 0.015 (≈ 0.0297 µM) | 0.031 (≈ 0.0614 µM) | 0.062 (≈ 0.123 µM) | 0.007 (≈ 0.0139 µM) | 0.25 (≈ 0.495 µM) | 0.031 (≈ 0.0614 µM) | 0.007 (≈ 0.0139 µM) | 2 (≈ 3.96 µM) | 0.25 (≈ 0.495 µM) | 128 (≈ 254 µM) | 238 | 248 | – | – | – | – |
| COc1ccc2nccc(-n3cc4c(n3)CCC(NCc3ccc5c(c3)NC(=O)CS5)C4)c2c1 (stereo not shown) [Example 52, 6-{[2-(6-Methoxy-quinolin-4-yl)-4,5,6,7-tetrahydro-2H-indazol-5-ylamino]-methyl}-4H-benzo[1,4]thiazin-3-one] | 0.5 (≈ 1.06 µM) | – | 0.5 (≈ 1.06 µM) | 0.5 (≈ 1.06 µM) | 0.25 (≈ 0.53 µM) | 0.25 (≈ 0.53 µM) | 1 (≈ 2.12 µM) | – | 1 (≈ 2.12 µM) | 0.25 (≈ 0.53 µM) | 2 (≈ 4.24 µM) | 265 | 63.6 | 0.125 (≈ 0.265 µM) | 0.125 (≈ 0.265 µM) | – | – |
| COc1ccc2nccc(-n3cc4c(n3)CCC(NC(=O)c3ccc5c(c3)NC(=O)CS5)C4)c2c1 (stereo not shown) [Example 17, 3-Oxo-3,4-dihydro-2H-benzo[1,4]thiazine-6-carboxylic acid [2-(6-methoxy-quinolin-4-yl)-4,5,6,7-tetrahydro-2H-indazol-5-yl]-amide] | 0.25 (≈ 0.515 µM) | 0.062 (≈ 0.128 µM) | – | – | 0.031 (≈ 0.0638 µM) | 0.25 (≈ 0.515 µM) | 0.062 (≈ 0.128 µM) | 0.015 (≈ 0.0309 µM) | 2 (≈ 4.12 µM) | 0.25 (≈ 0.515 µM) | 4 (≈ 8.24 µM) | 247 | 257 | – | – | 0.125 (≈ 0.257 µM) | 0.125 (≈ 0.257 µM) |
| COc1ccc2nccc(-n3cc4c(n3)CCC(NCc3ccc5c(c3)OCCO5)C4)c2c1 (stereo not shown) [Example 50, (2,3-Dihydro-benzo[1,4]dioxin-6-ylmethyl)-[2-(6-methoxy-quinolin-4-yl)-4,5,6,7-tetrahydro-2H-indazol-5-yl]-amine] | 1 (≈ 2.26 µM) | 16 (≈ 36.2 µM) | 0.5 (≈ 1.13 µM) | 1 (≈ 2.26 µM) | 16 (≈ 36.2 µM) | 0.5 (≈ 1.13 µM) | 16 (≈ 36.2 µM) | 0.5 (≈ 1.13 µM) | 1 (≈ 2.26 µM) | 0.5 (≈ 1.13 µM) | 128 (≈ 289 µM) | 4520 | 136 | – | – | – | – |
